Results on two compounds are retold here after US4616020A, “Medicaments, vicinal dihydroxyalkylxanthines contained therein, processes for the preparation of these xanthine compounds and intermediate products suitable for these” (Hoechst Aktiengesellschaft, priority 1981, dated 1986).

The conditions of series [1]: background statement; cited from earlier work.
For series [2] the following is noted: background statement; cited from earlier work. The source holds these as a separate data set.
A further series deals with NMRI mice. The conditions noted are these: mouse, i.v.; according to German Offenlegungsschrift 2,716,402; 10080 min; cited from earlier work.
Series [3] has as its system serotonine-induced bronchospasm. The series can be described thus: Bronchospasmolytic activity (Konzett-Rossler): inhibition of serotonine-induced bronchospasm in guinea-pigs. Format: in vivo. The conditions noted are these: Cavia porcellus, iv, guinea-pig, urethane anaesthesia; read-out: Bronchospasmolytic effect (ED50) compared to serotonine. On the procedure:
(§1) The test substances were administered in aqueous solution either intravenously (i.v.) or intraduodenally (i.d.). The ED50 values, which represent that dose in mg/kg at which the experimentally produced spasm is decreased by one half compared to that in untreated animals, were determined graphically from the dose-activity curves.

For series [4], the system named is acetylcholine-induced bronchospasm. The series can be described thus: Bronchospasmolytic activity (Konzett-Rossler): inhibition of acetylcholine-induced bronchospasm in guinea-pigs. Format: in vivo. The following applies: Cavia porcellus, iv, guinea-pig, urethane anaesthesia; read-out: Bronchospasmolytic effect (ED50) compared to acetylcholine. On the procedure: as §1

A further series can be described thus: Ratio of LD50 to ED50. It counts as in vivo, mouse (LD50); guinea-pigs (ED50). The conditions noted are these: LD50 i.v. mouse from German Offenlegungsschrift 2,716,402; ED50 i.v. guinea-pig. On the procedure: as §1
Determination of the LD50 values was by the standard method of the mortality occurring within 7 days among NMRI mice after a single intravenous (i.v.), intraperitoneal (i.p.) or oral (p.o.) administration.

The conditions of series [5]: cited from earlier work; for side-effects: background statement.
For series [6], the system named is histamine-induced bronchospasm. The series can be described thus: Bronchospasmolytic activity (Konzett-Rossler): inhibition of histamine-induced bronchospasm in guinea-pigs. The conditions noted are these: Cavia porcellus, iv, guinea-pig, urethane anaesthesia; read-out: Bronchospasmolytic effect (ED50) compared to histamine. It counts as in vivo. On the procedure:
as §1

Another series concerns central nervous system. The conditions noted are these: according to German Offenlegungsschrift No. 2,716,402; markedly less than theophylline; cited from earlier work.

With `CCCn1c(=O)c2c(ncn2CC(O)CO)n(CCC)c1=O` (stereo not shown) [7-(2,3-dihydroxypropyl)-1,3-dipropylxanthine], the “bronchospasmolytic activity compared to theophylline” value in series [1] is given as “almost to reach the bronchospasmolytic activity of theophylline”. Further, in series [2], the water solubility entry was “readily soluble in water”. The “Toxicity LD50” value with NMRI mice is on record as 287 mg/kg. For the same compound, the ED50 in series [3] is 10 mg/kg; in series [4], over 10 mg/kg; in [6] it was 6.5 mg/kg. Besides, in “Ratio of LD50 to ED50”, the “ratio of LD50 to ED50 (head is drawing 107)” value was under 32. Further, in [5] (German Offenlegungsschrift No. 2,716,402), the “acute toxicity compared to theophylline” value is “lower acute toxicity”. Besides, the side-effects entry in series [5] is given as “fewer disadvantageous side-effects”. Also, the “stimulation of the central nervous system” value in the series with central nervous system is reported as “stimulation of the central nervous system”.

Take `Cn1c(=O)c2c(ncn2CC(O)CO)n(C)c1=O` (stereo not shown) [Diphylline, 7-(2,3-dihydroxypropyl)-1,3-dimethylxanthine]: in series [1], the “bronchospasmolytic activity compared to theophylline” value is recorded as “drastic decrease in the bronchospasmolytic activity”. Also, the water solubility result in [2] is given as “good water solubility”. Moreover, the “Toxicity LD50” value in the series on NMRI mice is on record as 886 mg/kg. For the same compound, the ED50 in [3], in [4] and in [6] was over 30 mg/kg each time. Moreover, the “ratio of LD50 to ED50 (head is drawing 107)” value in “Ratio of LD50 to ED50” is listed as under 30. In addition, the side-effects entry in series [5] is “much less pronounced”. Further, the “stimulation of the central nervous system” value in the series on central nervous system was “stimulation of the central nervous system”.

The term ED50 denotes the dose that gives a 50% effect, or the effect in half of the subjects.
